Legend:
[1] = test system: P388 mouse lymphoid neoplasm; assay: Cell proliferation assay, P388; type: cell-based; details: P388 cells
Protocol: (§1) Early passage rat aortic smooth muscle cells (CV Therapeutics Cell repository) were seeded in 48 well dishes (Falcon, […]) at a density of 20,000 cells/ml of DME containing 5% heat inactivated bovine serum. The cells were incubated in a standard tissue culture incubator for 48 hr. The medium was aspirated and the wells were replenished with 0.2 ml of fresh medium. Compounds of this invention were added at concentrations ranging from 100 to 0.37 μg/ml. After 48 hr incubation, the medium was aspirated and the cultures were treated with 0.2 ml of saline 0.25 μl of phenozine methosulfate solution containing MTS (Cell Titer 96® Aqueous Non-radioactive cell proliferation assay kit, Catalog # G 5430, Promega, 2800 Woods Hollow Road, Madison, Wis. 53711-5399).
(§2) Similar assays were performed using the following cell lines; P388—mouse lymphoid neoplasm; L1210—mouse lympheytic leukemia; Caco2 human colon adenocarcinoma; MCF7 human breast adenocarcinoma; PupVSMC rat neonatal aortic smooth muscle cells; Ovcar human ovarian Carcinoma; Pancl human pancreatic adenocarcinoma; and HUVEC human umbilical cord endothelial cells.

[2] = test system: L1210 mouse lympheytic leukemia; assay: Cell proliferation assay, L1210; type: cell-based; details: L 120 cells
Protocol: as §1, §2

[3] = test system: Caco2 human colon adenocarcinoma; assay: Cell proliferation assay, Caco2; type: cell-based; details: Caco2 cells
Protocol: as §1, §2

[4] = test system: MCF7 human breast adenocarcinoma; assay: Cell proliferation assay, MCF7; type: cell-based; details: MCF7 cells
Protocol: as §1, §2

[5] = test system: Pancl human pancreatic adenocarcinoma; assay: Cell proliferation assay, Panc1; type: cell-based; details: Panc 1 cells
Protocol: as §1, §2

[6] = test system: Ovcar human ovarian Carcinoma; assay: Cell proliferation assay, OvCar; type: cell-based; details: OvCar cells
Protocol: as §1, §2

[7] = test system: PupVSMC rat neonatal aortic smooth muscle cells; assay: Cell proliferation assay, PupVSMC; type: cell-based
Protocol: as §1, §2

rat carotid artery = assay: Neointima formation following balloon angioplasty, rat carotid artery model; type: in vivo; details: 5 mg/mL, acute local delivery, 14 days after injury, treated vs untreated segment
From the text: In this example, the left common carotid arteries of adult male rats (n=10 per experimental group) were surgically injured using a Fogarty arterial embolectomy catheter. Immediately after injury, the common carotid artery was bisected with a vascular clamp, thereby establishing an untreated and treated segment. A drug delivery catheter was then inserted into the distal half of the common carotid. After drug delivery, the catheter was removed and excess drug was washed out by removing the vascular clamp and re-establishing blood flow before closing the artery. The animals were allowed to recover for 14 days before harvesting the common carotid artery. The harvested tissue was sectioned and the neointimal area was digitized and measured with a computer planimetery system. For each animal, 15 measurements were averaged for the untreated segment and 15 for the treated. {2-[(2-aminoethyl)amino]-9-(methylethyl)purin-6-yl}[(4-chlorophenyl)methyl]amine was administered at a dose of 5 mg/mL reducing the neointimal area about 90% in comparison to the 6% reduction of saline alone.

| SMILES | IC50 (μg/ml) for Inhibition of Cell Proliferation, P 388 [1] [µg/mL] | IC50 (μg/ml) for Inhibition of Cell Proliferation, L 120 [2] [µg/mL] | IC50 (μg/ml) for Inhibition of Cell Proliferation, Caco2 [3] [µg/mL] | IC50 (μg/ml) for Inhibition of Cell Proliferation, MCF7 [4] [µg/mL] | IC50 (μg/ml) for Inhibition of Cell Proliferation, Panc 1 [5] [µg/mL] | IC50 (μg/ml) for Inhibition of Cell Proliferation, OvCar [6] [µg/mL] | IC50 (μg/ml) for Inhibition of Cell Proliferation, PupVSMC ([7]; PupVSMC cells, Table 8) [µg/mL] | inhibitory activity, Pup VSMC ([7]; Rat neonatal aortic smooth muscle cells, Table 9, the values are: IC50) [µg/mL] | reduction of the neointimal area (rat carotid artery) |
| --- | --- | --- | --- | --- | --- | --- | --- | --- | --- |
| CC(C)n1cnc2c(Nc3ccc(-c4ccccc4)cc3)nc(N(CCO)CCO)nc21 [2-diethanolamino-6-(4-phenylanilino)-9-isopropylpurine] | 1.0 | 4.0 | 0.5 | 4.0 | 4.0 | 7.0 | 1.0 | – | – |
| CC(C)n1cnc2c(NCc3ccc(Cl)cc3)nc(NCCN)nc21 [{2-[(2-aminoethyl)amino]-9-(methylethyl)purin-6-yl}[(4-chlorophenyl)methyl]amine] | – | – | – | – | – | – | – | 0.1 | about 90% |
